Reference: ChEMBL document CHEMBL1124518, “Nonsteroidal cardiotonics. 2. The inotropic activity of linear, tricyclic 5-6-5 fused heterocycles” (1989)

Assays:
Canis familiaris [1] = test: Amount of time during which increase in administered orally in conscious dogs at 0.3 mg/kg; assay type: functional, Canis lupus familiaris; conditions: route oral
Canis familiaris [2] = test: Maximum increase in dP/dt60 when administered orally in dogs at dose 0.3 mg/kg; assay type: functional, Canis lupus familiaris; conditions: route oral
Canis familiaris [3] = test: Time after which maximum increase in contractility was observed when administered orally in conscious dogs at 1 mg/kg; assay type: functional, Canis lupus familiaris; conditions: route oral
Felis catus [4] = species on record: Felis catus; test: Effective dose required to produce an increase in dP/dt5 by 1500 mmHg/s in cats; assay type: functional
Felis catus [5] = test: Maximum increase in dP/dt when administered intravenously in cats at 0.3 mg/kg dose.; assay type: functional; conditions: route intravenous
Rattus norvegicus [6] = species on record: Rattus norvegicus; test: Effective dose required to produce an increase in dP/dt5 by 1500 mmHg/s in rats; assay type: functional
Rattus norvegicus [7] = test: Maximum increase in dP/dt when administered intravenously in rats at 10 mg/kg dose.; assay type: functional; set-up: unit not given here; conditions: route intravenous

Row | SMILES | Duration (Canis familiaris [1]) | Max (Canis familiaris [2]) | Time (Canis familiaris [3]) | ED1.5 (Felis catus [4]) | Max (Felis catus [5]) | ED1.5 (Rattus norvegicus [6]) | Max (Rattus norvegicus [7])
1 | CC1(C)C(=O)Nc2ccc(C3=NNC(=O)CC3)cc21 [INDOLIDAN] | > 6 h | 2.8 mmHg s-1 | 45 min |  |  |  | 
2 | CC1(C)C(=O)Nc2cc3[nH]c(-c4cnccn4)nc3cc21 |  |  |  | 0.04 mg/kg | 2.7 mHg/s | 0.1 mg/kg | 2.6
